Like-named read-outs stand apart in the source and are kept apart here.
Legend:
[1] = tested on: KPC-74T; assay: Time sterilization (time-killing) curve; type: cell-based, Escherichia coli
From the text: (§1) KPC-74T, carrying Escherichia coli containing KPC-2 plasmid, constructed by the laboratory; Hvkp, obtained through laboratory isolation; AN2718 purchased from Target Mol Technology Co., Ltd; BBLTM Mueller Hinton II Broth was purchased from BD Company in the United States; Meropenem was purchased from Meilun Biotechnology Co., Ltd; LB Broth was purchased from Qingdao High tech Industrial Park Haibo Biotechnology Co., Ltd; Enzyme marker (UV1900i, Shimadzu company);
Inoculate overnight cultured bacterial KPC-74T in a 1:10000 ratio onto MHB medium and incubate at 225 rpm at 37° C. for 2 hours (early exponential growth phase) or 5 hours (late exponential growth phase). After incubation, add the corresponding concentration of AN2718 or Meropenem solution and incubate it at 37° C. and 225 rpm. Set the time point to 0, 1, 3, 5, 7, and 24 hours. At each time point, absorb 100 μL bacterial solution, centrifuged at 10000 g rotating speed for 1 min, resuspended with PBS, diluted in ten fold gradient, and absorbed 10 μL of each gradient drops onto MHA plate. Place the plates in a 37° C. incubator for 24 hours and remove them. Count each plate and calculate the total bacterial count. Repeat the experiment three times.

[2] = tested on: KPC-74T; assay: Chessboard minimum inhibitory concentration determination; type: cell-based, Escherichia coli; conditions: for MIC: Escherichia coli; for MIC value decreased: combined use of the two drugs versus alone
From the text: as §1
This study referenced the standards of the Clinical and Laboratory Standards Institute (CLSI) in the United States and the laboratory's previous improvement methods and measured partial inhibitory concentrations through a chessboard test. Firstly, KPC-74T was activated, inoculated on Lysogeny broth, and cultured overnight at 37° C. Add 100 μL MHB medium to each well in a sterile 96 well plate; Then add AN2718 solution 100 μL to the first line and perform gradient dilution along the vertical axis. Then, add Meropenem solution to the first column and dilute it in a gradient along the abscissa. Finally, in addition to the negative control, add 100 μL of bacterial suspension ≈1×10^6 CFUs mL^−1. After completing the above operations, place the 96 well plate in a 37° C. constant temperature incubator and incubate for 18 hours. Observe the bacterial solution of each well under appropriate light, and observe the drug concentration corresponding to the complete absence of bacterial growth wells, which is MIC. Determine synergistic effects by calculating FIC. FIC can be calculated according to formula (1): […]
MICa is a separate MIC of compound a; MICab is the MIC of compound a combined with compound b; MICb is a separate MIC of compound b; MICba is the MIC of compound b combined with compound a; FICa is the FIC of compound a; FICb is the FIC of compound b. According to the standard definition, FICI≤0.5 is defined as synergy; 0.5<FICI≤1 is defined as an additive; […] is defined as no difference; FICI>4 is defined as an antagonistic effect.

[3] = tested on: Hvkp2 strain; assay: Treatment of mice infected with Hvkp2 strain; type: in vivo, ICR mice; conditions: monotherapy 16 mg/kg; for survival rate: after 24 hours of Hvkp2 infection, mice
Protocol: The experiment was conducted on mice infected with Hvkp2 strain for treatment. A total of 35 male ICR mice of SPF grade at four weeks old were selected and divided into seven groups. The […] were set as the saline control group, AN2718 monotherapy group (16 mg/kg), Meropenem monotherapy group (16 mg/kg), AN2718/Meropenem combination group 1 (8 mg/kg+8 mg/kg), AN2718/Meropenem combination group 2 (8 mg/kg+16 mg/kg), AN2718/Meropenem combination group 3 (16 mg/kg+8 mg/kg) and AN2718/Meropenem combination group 4 ([…]), respectively. First, incubate Hvkp2 overnight at 37° C., activate it, and resuspend it with physiological saline. Adjust the bacterial concentration to approximately 1×10^6 CFU/mL, spare. […]. Inject saline or medication 1 hours after infection. After 12 hours, the second dose of medication was administered for treatment, with a total of five injections and a time interval of 12 hours between each injection. Observe and count the survival status of each group of mice during the experiment.
This experiment used SPSS 20.0 software to statistically process and analyze the data represented by (X±SD). Multiple comparisons and one-way ANOVA were used to analyze and compare the data of each group. (P<0.05 indicates a significant difference, and P<0.01 indicates a highly significant difference).

[4] = molecular target: KPC-41 (Klebsiella pneumoniae, UniProt Q9F663); assay: Enzyme activity determination (nitrocefin hydrolysis); type: biochemical; conditions: read-out: semi-inhibitory concentration IC50 on KPC-41
KPC-41, sequence (Q9F663 1-268, added parts left off, change not shown, form open): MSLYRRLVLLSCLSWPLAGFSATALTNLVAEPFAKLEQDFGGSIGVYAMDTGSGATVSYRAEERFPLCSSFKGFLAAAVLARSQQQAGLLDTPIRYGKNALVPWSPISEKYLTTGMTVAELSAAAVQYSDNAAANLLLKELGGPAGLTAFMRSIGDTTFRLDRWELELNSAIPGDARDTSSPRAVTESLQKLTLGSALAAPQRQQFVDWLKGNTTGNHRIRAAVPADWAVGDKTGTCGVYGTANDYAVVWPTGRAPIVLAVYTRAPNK

[5] = molecular target: KPC-2 enzyme (Klebsiella pneumoniae, UniProt Q9F663); assay: as above; type: biochemical
KPC-2 enzyme, sequence (Q9F663 25-293 limits assumed): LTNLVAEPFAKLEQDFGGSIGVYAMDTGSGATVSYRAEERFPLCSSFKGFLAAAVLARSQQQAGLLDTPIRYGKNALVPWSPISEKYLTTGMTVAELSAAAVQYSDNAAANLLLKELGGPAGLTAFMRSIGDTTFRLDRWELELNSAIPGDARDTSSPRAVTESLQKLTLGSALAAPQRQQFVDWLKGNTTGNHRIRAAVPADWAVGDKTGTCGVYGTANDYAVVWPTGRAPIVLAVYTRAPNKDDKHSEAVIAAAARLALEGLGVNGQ
Protocol: Enzyme activity was measured using a Shimadzu UV-1900i spectrophotometer in 50 mM phosphate buffer (pH 7.0) to measure the inhibitory effect. The total enzyme activity reaction system is 500 μL. The reaction temperature was set to 37° C., and 0.3 nM KPC-2 enzyme was pre-incubated with different concentrations of AN2718 in phosphate buffer (pH 7.0) for 5 minutes before adding 60 μL nitrocefin. Measure the hydrolysis inhibition effect of AN2718 on nitrocefin by detect change of absorbance. The 50% inhibition concentration is determined by the inhibition curve of the control activity percentage and inhibitor concentration. Repeat the experiment three times.

[6] = molecular target: KPC-93 (Klebsiella pneumoniae, UniProt Q9F663); assay: as above; type: biochemical; conditions: read-out: semi-inhibitory concentration IC50 for KPC-93
KPC-93, sequence (Q9F663 25-293 limits assumed): as above

Q: Which “killing of bacteria within 24 h” value ([1]; Meropenem 4 μg/mL and 8 μg/mL with AN2718 40 μM) does the source give for `C[C@@H](O)[C@H]1C(=O)N2C(C(=O)O)=C(S[C@@H]3CN[C@H](C(=O)N(C)C)C3)[C@H](C)[C@H]12` [Meropenem] here?
A: Its value is “could not kill all bacteria”.

Q: And the “killing of bacteria within 24 h” value ([1]; Meropenem 4 μg/mL with AN2718 80 μM)?
A: Its value is “can kill most of the bacteria”.

Q: And the “killing of bacteria within 24 h” value ([1]; Meropenem 4 μg/mL with AN2718 160 μM)?
A: The value was “can kill all bacteria”.

Q: What about the “killing of bacteria within 24 h” value ([1]; Meropenem 128 μg/mL with AN2718 20 μM) of the same compound?
A: The value was “all bacteria can be killed”.

Q: And the “number of colonies versus control group” value ([1]; Meropenem alone 2 μg/mL˜64 μg/mL, at 24 hours)?
A: Its value is “no significant difference”.

Q: What about the “effect on the growth of KPC-74T” value ([1]; Meropenem alone 2 μg/mL˜64 μg/mL, first 5 hours) of the same compound?
A: The value was “a certain inhibitory effect”.

Q: What about the “effect on the growth of KPC-74T” value ([1]; Meropenem alone 128 μg/mL) of the same compound?
A: The value was “significant inhibitory effect”.

Q: What about the “killing of bacteria within 24 h” value ([1]; Meropenem alone 128 μg/mL) of the same compound?
A: The value was “still cannot kill all bacteria”.

Q: What about the “killing of bacteria within 24 h” value ([1]; Meropenem remaining concentrations (above 4 μg/mL) with AN2718 80 μM) of the same compound?
A: Its value is “can still kill all the bacteria”.

Q: And the “killing of bacteria within 24 h” value ([1]; Meropenem rest concentrations (above 8 μg/mL) with AN2718 40 μM)?
A: The value was “could still effectively kill bacteria”.

Q: What about the FICI ([2]; AN2718 in combination with Meropenem, KPC-74T) of the same compound?
A: The FICI was 0.25.

Q: And the Result ([2]; AN2718 in combination with Meropenem, KPC-74T, from FICI)?
A: The Result was “synergy (FICI≤0.5 is defined as synergy)”.

Q: And the MIC ([2]; read-out: Drug S-MIC)?
A: The MIC was 64 µg/mL.

Q: And the MIC value decreased ([2]; KPC-74T)?
A: Its MIC value decreased is 1024 times.

Q: What about the survival rate [3] of the same compound?
A: The survival rate was 20%.

Q: Which “effect on the growth of KPC-74T” value ([1]; AN2718 single use, up to 160 μM (26.88 μg/mL), within 24 hours) does the source give for `OB1OCc2cc(Cl)ccc21` [AN2718, 5-chloro-1,3-dihydro-1-hydroxy-2,1-benzoxaborole] here?
A: The value was “has no effect on the growth of KPC-74T”.

Q: What about the IC50 [4] of the same compound?
A: Its IC50 is 370000 nM.

Q: What about the IC50 [5] of the same compound?
A: The IC50 was 499 nM.

Q: What about the IC50 [6] of the same compound?
A: Its IC50 is 116 nM.

Q: And the MIC ([2]; 18 h, read-out: AN2718 S-MIC)?
A: The MIC was 13.4 µg/mL.

Q: What about the MIC value decreased ([2]; KPC-74T) of the same compound?
A: The MIC value decreased was “four”.

Q: What about the survival rate [3] of the same compound?
A: Its survival rate is 40%.

Q: What about the “survival rate versus Meropenem group” value ([3]; between 36h and 132h, mice infected with Hvkp2) of the same compound?
A: The value was “significantly higher”.
